# Measurements published in patent US8802674B2, “Aminopyrimidine derivatives as LRRK2 modulators” (Genentech, Inc., priority 2011, dated 2014).
# Target: LRRK2 (Homo sapiens (Human), UniProt Q5S007, G2019S)
# Assay: In Vitro LRRK2 LabChip Assay
# Assay type: biochemical
# Summary of the method: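 Phosphorylated and unphosphorylated peptides were separated by capillary electrophoresis and quantified by fluorescence. Ki came from a tight-binding equation, given in μM.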
# Sequence of LRRK2 (Q5S007 970-2527 G2019S limits assumed): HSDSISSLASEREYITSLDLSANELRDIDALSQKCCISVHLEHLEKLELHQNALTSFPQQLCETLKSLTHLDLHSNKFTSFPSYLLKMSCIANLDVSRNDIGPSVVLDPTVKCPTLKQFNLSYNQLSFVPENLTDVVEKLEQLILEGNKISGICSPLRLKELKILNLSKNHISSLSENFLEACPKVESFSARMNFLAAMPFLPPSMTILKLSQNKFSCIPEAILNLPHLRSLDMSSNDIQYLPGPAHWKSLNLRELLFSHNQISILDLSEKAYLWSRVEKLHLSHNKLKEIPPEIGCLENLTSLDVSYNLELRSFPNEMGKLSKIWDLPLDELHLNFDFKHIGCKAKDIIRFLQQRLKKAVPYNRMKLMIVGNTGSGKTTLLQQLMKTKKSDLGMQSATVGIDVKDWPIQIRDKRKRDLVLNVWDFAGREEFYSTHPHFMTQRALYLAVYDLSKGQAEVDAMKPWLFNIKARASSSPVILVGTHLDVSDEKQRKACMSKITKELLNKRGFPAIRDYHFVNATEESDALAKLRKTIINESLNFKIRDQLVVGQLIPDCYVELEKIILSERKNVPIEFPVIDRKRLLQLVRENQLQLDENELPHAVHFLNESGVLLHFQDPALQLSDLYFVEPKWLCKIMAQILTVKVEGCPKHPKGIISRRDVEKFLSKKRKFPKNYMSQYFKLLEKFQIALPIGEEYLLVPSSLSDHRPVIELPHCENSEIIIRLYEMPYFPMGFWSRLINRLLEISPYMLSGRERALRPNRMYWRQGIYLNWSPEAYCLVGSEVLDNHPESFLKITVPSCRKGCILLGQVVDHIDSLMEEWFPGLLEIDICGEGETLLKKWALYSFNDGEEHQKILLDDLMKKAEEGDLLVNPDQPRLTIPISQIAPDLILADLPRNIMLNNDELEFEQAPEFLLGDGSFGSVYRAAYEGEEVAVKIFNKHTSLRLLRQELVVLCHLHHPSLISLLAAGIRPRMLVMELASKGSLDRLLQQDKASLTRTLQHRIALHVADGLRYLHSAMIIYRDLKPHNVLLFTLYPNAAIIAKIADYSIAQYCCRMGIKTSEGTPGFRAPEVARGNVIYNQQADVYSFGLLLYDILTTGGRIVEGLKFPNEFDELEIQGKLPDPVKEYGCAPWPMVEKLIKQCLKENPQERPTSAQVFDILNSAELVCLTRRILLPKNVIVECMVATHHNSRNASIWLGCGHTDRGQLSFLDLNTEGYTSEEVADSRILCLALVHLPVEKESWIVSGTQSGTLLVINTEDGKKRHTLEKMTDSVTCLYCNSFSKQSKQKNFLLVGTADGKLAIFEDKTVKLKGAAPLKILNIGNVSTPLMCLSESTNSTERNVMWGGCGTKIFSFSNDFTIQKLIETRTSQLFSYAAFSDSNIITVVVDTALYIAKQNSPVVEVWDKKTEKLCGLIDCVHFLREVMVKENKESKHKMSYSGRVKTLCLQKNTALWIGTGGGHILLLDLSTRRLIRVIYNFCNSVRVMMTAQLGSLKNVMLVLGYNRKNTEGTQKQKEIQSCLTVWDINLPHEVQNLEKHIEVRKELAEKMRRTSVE
SMILES,Ki (Table 4) [nM],also measured
"CNc1nc(Nc2ccc(C(=O)N3CC4CC3CO4)cc2OC)ncc1Cl (stereo not drawn) [Example 62, [4-(5-Chloro-4-methylamino-pyrimidin-2-ylamino)-3-methoxy-phenyl]-(2-oxa-5-aza-bicyclo[2.2.1]hept-5-yl)-methanone]",4.5,
"CNc1nc(Nc2ccc(C(=O)N3CCOC(CC(C)C)C3)cc2OC)ncc1Cl (stereo not drawn) [Example 41, [4-(5-Chloro-4-methylamino-pyrimidin-2-ylamino)-3-methoxy-phenyl]-(2-isobutyl-morpholin-4-yl)-methanone]",4.2,
"CNc1nc(Nc2ccc(C(=O)N3CCC(C(C)(C)O)CC3)cc2OC)ncc1Br [Example 71, [4-(5-Bromo-4-methylamino-pyrimidin-2-ylamino)-3-methoxy-phenyl]-[4-(l-hydroxy-1-methyl-ethyl)-piperidin-1-yl]-methanone]",2.4,
"CNc1nc(Nc2cc(OC)c(C(=O)NCC(C)(C)O)cc2Cl)ncc1C(F)(F)F [Example 175, 5-Chloro-N-(2-hydroxy-2-methyl-propyl)-2-methoxy-4-(4-methylamino-5-trifluoromethyl-pyrimidin-2-ylamino)-benzamide]",7.9,
"COc1cc(C(=O)N2CCCC2)ccc1Nc1ncc(Cl)c(OC)n1 [Example 299, (4-(5-chloro-4-methoxypyrimidin-2-ylamino)-3-methoxyphenyl) (pyrrolidin-1-yl)methanone]",,Ki (Table 6): 6 nM
"CNc1nc(Nc2ccc(C(=O)N3CCC(C(F)(F)F)C3)cc2OC)ncc1Br (stereo not drawn) [Example 72, [4-(5-Bromo-4-methylamino-pyrimidin-2-ylamino)-3-methoxy-phenyl]-(3-trifluoromethyl-pyrrolidin-1-yl)-methanone]",6.4,
"CNc1nc(Nc2ccc(C(=O)N3CCC(OC)CC3)cc2OC)ncc1C(F)(F)F [Example 280, [3-Methoxy-4-(4-methylamino-5-trifluoromethyl-pyrimidin-2-ylamino)-phenyl]-(4-methoxy-piperidin-1-yl)-methanone]",,Ki (Table 6): 1.6 nM
"CNc1nc(Nc2ccc(C(=O)N3CCOCC3)cc2OC(F)F)ncc1Cl [Example 7, [4-(5-Chloro-4-methylamino-pyrimidin-2-ylamino)-3-difluoromethoxy-phenyl]-morpholin-4-yl-methanone]",4.9,
"CNc1nc(Nc2ccc(C(=O)N3CCN(C4COC4)CC3)cc2OC)ncc1Br [Example 78, [4-(5-Bromo-4-methylamino-pyrimidin-2-ylamino)-3-methoxy-phenyl]-(4-oxetan-3-yl-piperazin-1-yl)-methanone]",8,
"CNc1nc(Nc2cc(F)c(C(=O)N(C)C)cc2OC)ncc1C#N [Example 320, 4-(5-Cyano-4-methylamino-pyrimidin-2-ylamino)-2-fluoro-5-methoxy-N,N-dimethyl-benzamide]",,Ki (Table 7): 62.5 nM
"CNc1nc(Nc2cc(OC)c(C(=O)N(C)CC(C)(C)O)cc2Cl)ncc1C(F)(F)F [Example 181, 5-Chloro-N-(2-hydroxy-2-methyl-propyl)-2-methoxy-N-methyl-4-(4-methylamino-5-trifluoromethyl-pyrimidin-2-ylamino)-benzamide]",6.3,
"CNc1nc(Nc2cc(OC)c(C(=O)N3CCCC3)cc2Cl)ncc1Cl [Example 156, [5-Chloro-4-(5-chloro-4-methylamino-pyrimidin-2-ylamino)-2-methoxy-phenyl]-pyrrolidin-1-yl-methanone]",7.4,
"CNc1nc(Nc2cc(OC)c(C(=O)NC(C)(C)C)cc2Cl)ncc1Cl [Example 157, N-tert-Butyl-5-chloro-4-(5-chloro-4-methylamino-pyrimidin-2-ylamino)-2-methoxy-benzamide]",28.2,
"CNc1nc(Nc2ccc(C(=O)N3CCOCC3)cc2OC)ncc1C1CC1 [Example 66, [4-(5-Cyclopropyl-4-methylamino-pyrimidin-2-ylamino)-3-methoxy-phenyl]-morpholin-4-yl-methanone]",35.9,
"CNc1nc(Nc2ccc(C(=O)N3CC(C)OC(C)C3)cc2OC)ncc1C(F)(F)F (stereo not drawn) [Example 277, (2,6-Dimethyl-morpholin-4-yl)-[3-methoxy-4-(4-methylamino-5-trifluoromethyl-pyrimidin-2-ylamino)-phenyl]-methanone]",,Ki (Table 6): 4.9 nM
"CNc1nc(Nc2ccc(C(=O)N3CCOCC3)cc2Br)ncc1C(F)(F)F [Example 290, [3-Bromo-4-(4-methylamino-5-trifluoromethyl-pyrimidin-2-ylamino)-phenyl]-morpholin-4-yl-methanone]",,Ki (Table 6): 7.5 nM
"COCCNc1nc(Nc2ccc(C(=O)N3CCOCC3)cc2OC(C)C)ncc1Br [Example 186, {4-[5-Bromo-4-(2-methoxy-ethylamino)-pyrimidin-2-ylamino]-3-isopropoxy-phenyl}-morpholin-4-yl-methanone]",13.5,
"CCC1(CC)CN(C(=O)c2ccc(Nc3ncc(Cl)c(NC)n3)c(OC)c2)CCO1 [Example 39, [4-(5-Chloro-4-methylamino-pyrimidin-2-ylamino)-3-methoxy-phenyl]-(2,2-diethyl-morpholin-4-yl)-methanone]",5.5,
"CNc1nc(Nc2ccc(C(=O)N3CCN(CC(F)(F)F)CC3)cc2OC)ncc1Br [Example 75, [4-(5-Bromo-4-methylamino-pyrimidin-2-ylamino)-3-methoxy-phenyl]-[4-(2,2,2-trifluoro-ethyl)-piperazin-1-yl]-methanone]",3.8,
"CNc1nc(Nc2ccc(C(=O)NC(C)C)cc2OC)ncc1C#N [Example 200, 4-(5-Cyano-4-methylamino-pyrimidin-2-ylamino)-N-isopropyl-3-methoxy-benzamide]",4.4,
"CNc1nc(Nc2cc(OC)c(C(=O)N(C)C)cc2Cl)ncc1C(F)(F)F [Example 158, 5-Chloro-2-methoxy-N,N-dimethyl-4-(4-methylamino-5-trifluoromethyl-pyrimidin-2-ylamino)-benzamide]",6.8,
"COc1cc(C(=O)N2CCOCC2)ccc1Nc1ncc(Cl)c(NC2CCC2)n1 [Example 81, [4-(5-Chloro-4-cyclobutylamino-pyrimidin-2-ylamino)-3-methoxy-phenyl]-morpholin-4-yl-methanone]",1.5,
"CNc1nc(Nc2cc(F)c(C(=O)N3CCOCC3)cc2OC)ncc1C#N [Example 317, 2-[5-Fluoro-2-methoxy-4-(morpholine-4-carbonyl)-phenylamino]-4-methylamino-pyrimidine-5-carbonitrile]",,Ki (Table 7): 11.2 nM
"CNc1nc(Nc2cc(OC)c(C(=O)N3CCCOCC3)cc2Cl)ncc1Cl [Example 165, [5-Chloro-4-(5-chloro-4-methylamino-pyrimidin-2-ylamino)-2-methoxy-phenyl]-[1,4]oxazepan-4-yl-methanone]",5.7,

# Second part, led by results:
Ki (Table 4) [nM],SMILES,also measured
13.5,"CNc1nc(Nc2ccc(C(=O)N3C[C@H](F)[C@@H](F)C3)cc2OC)ncc1C#N [Example 245, 2-(4-((3S,4S)-3,4-difluoropyrrolidine-1-carbonyl)-2-methoxyphenylamino)-4-(methylamino) pyrimidine-5-carbonitrile]",
3.7,"CNc1nc(Nc2cc(OC)c(CC(=O)N3CCOCC3)cc2OC)ncc1C(F)(F)F [Example 227, 2-[2,5-Dimethoxy-4-(4-methylamino-5-trifluoromethyl-pyrimidin-2-ylamino)-phenyl]-1-morpholin-4-yl-ethanone]",
18.4,"COc1cc(C(=O)N2CCOCC2)ccc1Nc1ncc(Cl)c(NC2CCOC2)n1 (stereo not drawn) [Example 214, {4-[5-Chloro-4-(tetrahydro-furan-3-ylamino)-pyrimidin-2-ylamino]-3-methoxy-phenyl}-morpholin-4-yl-methanone]",
